From patent US11964973B2 (priority 2019, dated 2024) come the findings set out here.

Assay [1] deals with naïve human CD8 T cells. Description: CellTiter-Glo CD8 T cell proliferation assay. To be noted: Homo sapiens, read-out: CD8 GLO Normalized EC50. Type of assay: cell-based. The protocol:
Assay 4: CellTiter-Glo CD8 T Cell Proliferation Assay
Frozen naïve human CD8 T cells were thawed in RPMI+10% FBS, incubated for 2 h in 37° C., and counted. The 384-well tissue culture plate was coated overnight at 4° C. with 20 μl anti-human CD3 at 0.1 μg/mL in plain RPMI, which was removed off the plate before 20 k/40 μL CD8 T cells with 0.5 μg/ml soluble anti-human CD28 were added to each well. The compounds were echoed to the cell plate immediately after the cells were plated. After 72 h incubation at 37° C. incubator, 10 μL CellTiter-glo reagent (Promega catalog number G7570) was added to each well. The plate was vigorously shaken for 5 mins, incubated at room temperature for another 15 mins and read on Envision for CD8 T cell proliferation. In analysis, 0.1 μg/mL anti-CD3 and 0.5 μg/mL anti-CD28 stimulated CD8 T cell signal was background.
(Cellular ATP, detected with luciferase, serves as a proxy for viable cell number.)

Assay [2] relates to OT-1 CD8+ T cells with SIINFEKL-loaded MC38 tumor cells. Description: Murine cytotoxic T lymphocyte assay (IFN-γ). To be noted: Mus musculus, MC-38; murine cytotoxic T lymphocyte, IFN-γ; read-out: msCTL INFg IC50. It is filed as cell-based, mouse. An excerpt:
Assay 6: Murine Cytotoxic T Lymphocyte Assay
An antigen-specific cytolytic T-cell (CTL) assay was developed to evaluate functionally the ability of DGKα and DGKζ inhibitors to enhance effector T cell mediated tumor cell killing activity. CD8+ T-cells isolated from the OT-1 transgenic mouse recognize antigen presenting cells, MC38, that present the ovalbumin derived peptide […]. Recognition of the cognate antigen initiates the cytolytic activity of the OT-1 antigen-specific CD8+ T cells.
Functional CTL cells were generated as follows: OT-1 splenocytes from 8-12 week old mice were isolated and expanded in the presence of the […] peptide at 1 μg/mL and mIL2 at 10 U/mL. After three days, fresh media with […] was added. On day 5 of the expansion, the CD8+ T cells were isolated and ready for use. Activated CTL cells may be stored frozen for 6 months. Separately, one million MC38 tumor cells were pulsed with 1 μg/mL of […]-OVA peptide for 3 hours at 37° C. The cells were washed (3×) with fresh media to remove excess peptide. Finally, CTL cells that were pretreated with DGK inhibitors for 1 hour in a 96-well U bottom plate were combined with the antigen loaded MC38 tumor cells at a 1:10 ratio. The cells were then spun at 700 rpm for 5 min and placed in an incubator overnight at 37° C. After 24 hours, the supernatant was collected for analysis of IFN-γ cytokine levels by AlphaLisa purchased from Perkin Elmer.

The target in assay [3] is DGKα (Homo sapiens (Human), UniProt P23743). The experiment in a line: biochemical. It is filed as biochemical. The note with it: liposome (LIPGLO) assay; read-out: DGKα LIPGLO IC50.
Sequence of DGKα (P23743 whole entry, looked up): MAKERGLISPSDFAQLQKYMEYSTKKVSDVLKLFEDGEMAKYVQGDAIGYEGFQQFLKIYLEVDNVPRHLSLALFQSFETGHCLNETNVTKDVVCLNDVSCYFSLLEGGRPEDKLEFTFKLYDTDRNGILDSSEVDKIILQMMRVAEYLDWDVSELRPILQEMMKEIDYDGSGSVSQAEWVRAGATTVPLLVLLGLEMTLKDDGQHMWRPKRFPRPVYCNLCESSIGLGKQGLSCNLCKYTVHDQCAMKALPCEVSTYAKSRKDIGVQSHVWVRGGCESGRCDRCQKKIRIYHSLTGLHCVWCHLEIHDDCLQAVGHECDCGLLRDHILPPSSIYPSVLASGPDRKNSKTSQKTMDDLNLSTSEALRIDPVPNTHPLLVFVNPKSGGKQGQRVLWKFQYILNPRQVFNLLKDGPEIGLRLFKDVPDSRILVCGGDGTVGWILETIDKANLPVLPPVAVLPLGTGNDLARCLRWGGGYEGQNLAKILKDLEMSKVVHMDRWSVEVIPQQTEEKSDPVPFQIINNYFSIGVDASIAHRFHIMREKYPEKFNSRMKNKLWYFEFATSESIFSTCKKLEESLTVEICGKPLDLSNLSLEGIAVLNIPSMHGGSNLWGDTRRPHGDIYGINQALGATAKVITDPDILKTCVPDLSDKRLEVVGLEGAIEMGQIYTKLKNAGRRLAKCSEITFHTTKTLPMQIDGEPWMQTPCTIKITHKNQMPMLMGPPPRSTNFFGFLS
Assay [4] deals with human DGKζ (Homo sapiens (Human), UniProt Q13574). The experiment in a line: biochemical. To be noted: liposome (LIPGLO) assay; read-out: DGKζ LIPGLO IC50. Type of assay: biochemical.
Sequence of human DGKζ (Q13574 whole entry, looked up): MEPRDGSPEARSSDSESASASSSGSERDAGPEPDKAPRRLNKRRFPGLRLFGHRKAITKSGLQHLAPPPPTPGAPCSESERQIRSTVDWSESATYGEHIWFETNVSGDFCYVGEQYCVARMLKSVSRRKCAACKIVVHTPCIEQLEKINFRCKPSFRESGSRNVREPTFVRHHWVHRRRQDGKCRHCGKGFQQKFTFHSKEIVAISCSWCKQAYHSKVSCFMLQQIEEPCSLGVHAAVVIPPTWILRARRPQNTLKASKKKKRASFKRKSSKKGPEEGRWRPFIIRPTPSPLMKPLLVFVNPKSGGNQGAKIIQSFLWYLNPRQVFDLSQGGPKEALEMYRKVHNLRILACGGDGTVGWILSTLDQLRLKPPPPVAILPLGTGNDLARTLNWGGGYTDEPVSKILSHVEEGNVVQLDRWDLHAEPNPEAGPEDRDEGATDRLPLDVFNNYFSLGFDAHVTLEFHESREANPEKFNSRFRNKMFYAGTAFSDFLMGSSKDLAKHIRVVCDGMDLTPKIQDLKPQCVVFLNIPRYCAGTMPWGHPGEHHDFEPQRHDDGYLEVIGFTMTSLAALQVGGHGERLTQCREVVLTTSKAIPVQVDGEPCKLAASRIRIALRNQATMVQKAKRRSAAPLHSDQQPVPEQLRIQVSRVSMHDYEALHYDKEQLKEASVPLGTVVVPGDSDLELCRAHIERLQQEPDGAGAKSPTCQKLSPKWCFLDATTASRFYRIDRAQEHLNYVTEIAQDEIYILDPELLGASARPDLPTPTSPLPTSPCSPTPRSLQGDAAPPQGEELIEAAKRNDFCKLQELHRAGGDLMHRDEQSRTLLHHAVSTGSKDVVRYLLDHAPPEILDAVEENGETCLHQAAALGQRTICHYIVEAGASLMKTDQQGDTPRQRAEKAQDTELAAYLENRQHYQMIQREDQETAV
Assay [5] relates to Human venous whole blood (IFN-γ). The experiment in a line: Human whole blood IFN-γ assay. It is filed as cell-based. The note with it: Homo sapiens, 24 h, human whole blood, anti-CD3 plus anti-CD28, 24 hours; read-out: INFg Whole Blood Normalized Agonist EC50. The protocol:
Assay 10: Human Whole Blood IFN-γ Assay
Human venous whole blood (22.5 μL per well), obtained from healthy donors, was pre-treated with compounds for one hour at 37° C. in a humidified 95% air/5% CO2 incubator. The blood was stimulated with 2.5 μL anti-human CD3 and anti-CD28 mAb at a final concentration of 1 μg/mL each for 24 hours at 37° C. IFN-γ in the supernatants was measured using AlphLISA kit (Cat #AL217).

The subject of assay [6] is human venous whole blood, CD8 positive population (pERK). The experiment in a line: DGK human whole blood pERK assay. Type of assay: cell-based. To be noted: human whole blood, CD8 positive population; read-out: DGK HWB pERK IC50. The essentials: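 Heparinized whole blood from healthy donors preincubated with compound 1 hour at 37° C. Stimulation used anti-CD3 at 1 μg/mL final plus cross-linking goat anti-mouse IgG for 15 minutes. Flow cytometry scored percentage pERK-positive cells among CD8-positive cells.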

Consider `Cn1c(=O)c(C#N)c(N2CCC(Oc3ccc(OC(F)(F)F)cc3)CC2)c2nc(C#N)ccc21` [Example 50, 5-methyl-6-oxo-8-(4-(4-(trifluoromethoxy)phenoxy)piperidin-1-yl)-5,6-dihydro-1,5-naphthyridine-2,7-dicarbonitrile], for which the EC50 was 0.055 µM in assay [1] and 5 µM in assay [5]. For the same compound, the figures for the IC50 in assay [2], in assay [3] and in assay [4] were 0.99 µM, 1.6 µM and 12 µM, respectively.
For `Cn1c(=O)c(C#N)c(N2CCC(Oc3cccc(OC(F)(F)F)c3)CC2)c2nc(Cl)ccc21` [Example 13, 6-chloro-1-methyl-2-oxo-4-(4-(3-(trifluoromethoxy)phenoxy)piperidin-1-yl)-1,2-dihydro-1,5-naphthyridine-3-carbonitrile] the same measures were 1.2 µM, 5 µM, 1.5 µM, 2 µM and 240 µM.
In the same order, the values of `COc1ccc2c(n1)c(N1CCC(Oc3ccc(OC(F)(F)F)cc3)CC1)c(C#N)c(=O)n2C` [Example 48, 6-methoxy-1-methyl-2-oxo-4-(4-(4-(trifluoromethoxy)phenoxy)piperidin-1-yl)-1,2-dihydro-1,5-naphthyridine-3-carbonitrile] are 0.13 µM, 6.4 µM, 0.27 µM, 2.7 µM and 3.4 µM.
In the case of `Cn1c(=O)c(C#N)c(N2CCC(Oc3ccccc3C(F)(F)F)CC2)c2nc(Cl)ccc21` [Example 11, 6-chloro-1-methyl-2-oxo-4-(4-(2-(trifluoromethyl)phenoxy)piperidin-1-yl)-1,2-dihydro-1,5-naphthyridine-3-carbonitrile], the EC50 in assay [1] and in assay [5] was 10 µM in each case. The values for the IC50 in assay [2], in assay [3] and in assay [4] were 0.83 µM, 12 µM and 150 µM, respectively.
As to `COc1cccc(OC2CCN(c3c(C#N)c(=O)n(C)c4ccc(Cl)nc34)CC2)c1` [Example 10, 6-chloro-4-(4-(3-methoxyphenoxy)piperidin-1-yl)-1-methyl-2-oxo-1,2-dihydro-1,5-naphthyridine-3-carbonitrile], the EC50 in assay [1] was 0.14 µM; in assay [5], 5 µM. In addition, the IC50 in assay [2] came to 4.5 µM; in assay [3], 0.15 µM; in assay [4], 2.8 µM.
For `Cc1cc(F)cc(OC2CCN(c3c([N+](=O)[O-])c(=O)n(C)c4ccc(F)cc34)CC2)c1` [Example 1, 6-fluoro-4-(4-(3-fluoro-5-methylphenoxy)piperidin-1-yl)-1-methyl-3-nitroquinolin-2(1H)-one], the EC50 is 1.6 µM in assay [1] and 10 µM in assay [5]. In addition, the IC50 in assay [2] amounted to 5.2 µM; in assay [3], 0.24 µM; in assay [4], 100 µM.
Take `Cn1c(=O)c([N+](=O)[O-])c(N2CCC(Oc3ccc(OC(F)(F)F)cc3)CC2)c2nc(C#N)ccc21` [Example 51, 5-methyl-7-nitro-6-oxo-8-(4-(4-(trifluoromethoxy)phenoxy)piperidin-1-yl)-5,6-dihydro-1,5-naphthyridine-2-carbonitrile]: the EC50 is 0.14 µM in assay [1] and 1.7 µM in assay [5]. The concentration for half-maximal inhibition (IC50) came out at 0.18 µM in assay [2], 0.23 µM in assay [3], 3 µM in assay [4] and 2.5 µM in assay [6].
In the case of `COc1ccc(OC2CCN(c3c(C#N)c(=O)n(C)c4ccc(Cl)nc34)CC2)cc1` [Example 14, 6-chloro-4-(4-(4-methoxyphenoxy)piperidin-1-yl)-1-methyl-2-oxo-1,2-dihydro-1,5-naphthyridine-3-carbonitrile], the values for the EC50 in assay [1] and in assay [5] were 0.28 µM and 7 µM, respectively. The 50% inhibitory concentration (IC50) in assay [2] came out at 0.83 µM; in assay [3], 0.25 µM; in assay [4], 13 µM.
For `Cn1c(=O)c(C#N)c(N2CCC(Oc3ccc(OC(F)(F)F)c(F)c3)CC2)c2nc(Cl)ccc21` [Example 17, 6-chloro-4-(4-(3-fluoro-4-(trifluoromethoxy)phenoxy)piperidin-1-yl)-1-methyl-2-oxo-1,2-dihydro-1,5-naphthyridine-3-carbonitrile] the same measures were 0.47 µM, 10 µM, 1.1 µM, 1.1 µM and 240 µM.
Turning to `Cn1c(=O)c(C#N)c(N2CCC(Oc3ccccc3)CC2)c2nc(Cl)ccc21` [Example 46, 6-chloro-1-methyl-2-oxo-4-(4-phenoxypiperidin-1-yl)-1,2-dihydro-1,5-naphthyridine-3-carbonitrile], the EC50 in assay [1] is 1.2 µM. Further, the IC50 came to 8.5 µM in assay [2], 0.15 µM in assay [3] and 27 µM in assay [4].
In the case of `Cn1c(=O)c(C#N)c(N2CCC(Oc3ccc(OC(C)(C)C)cc3)CC2)c2nc(Cl)ccc21` [Example 31, 4-(4-(4-(tert-butoxy)phenoxy)piperidin-1-yl)-6-chloro-1-methyl-2-oxo-1,2-dihydro-1,5-naphthyridine-3-carbonitrile], the concentration giving a half-maximal response (EC50) in assay [1] came to 0.044 µM. For the same compound, the IC50 in assay [2] is 10 µM; in assay [3] it was 0.28 µM; in assay [4] it was 11 µM.
As for `Cn1c(=O)c([N+](=O)[O-])c(N2CCC(Oc3ccc(OC(F)(F)F)cc3)CC2)c2cc(F)ccc21` [Example 3, 6-fluoro-1-methyl-3-nitro-4-(4-(4-(trifluoromethoxy)phenoxy)piperidin-1-yl)quinolin-2(1H)-one], the EC50 in assay [1] came out at 0.49 µM; in assay [5], 10 µM. The half-inhibitory concentration (IC50) in assay [2] came out at 1.5 µM; in assay [3], 0.11 µM; in assay [4] it was 240 µM.
For the compound `Cn1c(=O)c(C#N)c(N2CCC(Oc3ccc(OC(F)(F)F)c(Cl)c3)CC2)c2nc(Cl)ccc21` [Example 42, 6-chloro-4-(4-(3-chloro-4-(trifluoromethoxy)phenoxy)piperidin-1-yl)-1-methyl-2-oxo-1,2-dihydro-1,5-naphthyridine-3-carbonitrile], in assay [1], the EC50 came out at 0.7 µM. In addition, the half-inhibitory concentration (IC50) in assay [2] was determined as 10 µM; in assay [3], 5.4 µM; in assay [4], 240 µM.
In the same order, the values of `Cn1c(=O)c(C#N)c(N2CCC(Oc3ccc(OC(F)(F)F)cc3)CC2)c2nc(Br)ccc21` [Example 47, 6-Bromo-1-methyl-2-oxo-4-(4-(4-(trifluoromethoxy)phenoxy)piperidin-1-yl)-1,2-dihydro-1,5-naphthyridine-3-carbonitrile] are 0.49 µM, 0.68 µM, 0.45 µM and 240 µM.
In the same order, the values of `Cn1c(=O)c(C#N)c(N2CCC(Oc3cccc(C(F)(F)F)c3)CC2)c2nc(Cl)ccc21` [Example 24, 6-chloro-1-methyl-2-oxo-4-(4-(3-(trifluoromethyl)phenoxy)piperidin-1-yl)-1,2-dihydro-1,5-naphthyridine-3-carbonitrile] are 0.75 µM, 1.5 µM, 2 µM and 27 µM.
Take `Cn1c(=O)c(C#N)c(N2CCC(Oc3ccc(F)c(F)c3)CC2)c2nc(Cl)ccc21` [Example 12, 6-chloro-4-(4-(3,4-difluorophenoxy)piperidin-1-yl)-1-methyl-2-oxo-1,2-dihydro-1,5-naphthyridine-3-carbonitrile]: the figures for the concentration for a half-maximal effect (EC50) in assay [1] and in assay [5] were 2.3 µM and 5 µM, respectively. In addition, the IC50 in assay [2] is 3.8 µM; in assay [3], 3.2 µM; in assay [4] it was 27 µM.

Broadly, the EC50 is the concentration needed to bring the measured effect to its halfway point. Broadly, the IC50 is the concentration that inhibits the measured activity by half.
